“Also recorded” adds a separate entry of the source. Where two headings read alike, the source gives them in different places. Where a SMILES comes first, the peptide text is derived from it. Bridges are numbered along the chain shown (N, C = ends).
Legend:
[1] = test system: anti-CD3-activated mouse spleen cells; assay: Proliferation and Th1-type cytokines of anti-CD3-activated spleen cells; type: cell-based; conditions: 100 nM (Supplementary Fig. 2d)
Method: Spleen cells were isolated from C57Bl/6J mice (male, 8-weeks-old, Charles River) by mechanical cell dissociation, filtration using a nylon filter and red cell lysing. The spleen cells were incubated in complete DMEM medium at a density of 10^6 cells/mL for 2 h. Nonadherent cells (consisting in 80% of T cells) were cultured in complete DMEM medium and stimulated with anti-mouse CD3e antibody (2 μg/mL, clone 145-2C11, BD Pharmingen, cat #: 553058) in the presence of different Cortistatin analogues (100 nM). After 48 h, culture supernatants were collected and the levels of cytokines (IFNγ and IL2) were determined by a specific sandwich ELISA by using capture/biotinylated detection monoclonal antibodies from BD Pharmingen (for IFNγ: capture antibody clone XMG1.2, cat # 554408; biotin antibody clone R4-6A2, cat # 551506; for IL2: capture antibody clone S4B6, cat # 554375; biotin antibody clone JES6-5H4, cat # 554426) according to the manufacturer’s recommendations. To determine the effect of different analogues of Cortistatin in proliferation, the cells were cultured for 72 h, 0.5 μCi (0.0185 MBq)/well of [^3H]-thymidine was added for the last 8 h of culture, harvested the membranes and [^3H]-thymidine incorporated was quantified by scintillation counting.

SSTR1 = target: T1, SSTR1 (Homo sapiens, UniProt P30872); assay: Radio-ligand binding assay, SSTR1
T1 construct: host or cells: CHO-K1
Method: (§1) Graphical and tabular representation of the percentage inhibition of specific binding, as IC50 (nM) binding values for the analogues against the five SSTR1-SSTR5 is represented in Supplementary Fig. 1b and Supplementary Table 1. […] IC50 values were determined by a non-linear, least squares regression analysis using Prism 9 (GraphPad Software, USA), using the Dose-response inhibition (three-parameters) model. […]
(§2) (SSTR1-SSTR5), using a Radio-ligand Binding Assay (Supplementary Figure 1b). Cells were incubated in HEPES buffer pH 7.4 with the new analogues of Cortistatin at 10 different concentrations in a range […]
(§3) specifically bound (performed at Eurofins Panlabs, Inc.). The radioactivity obtained in the absence of SST14 is considered as total binding and that obtained in the presence of 1 µM of SST14 is considered as nonspecific binding. Specific binding was considered as the difference between total and nonspecific.
(§4) Biochemical assay results are presented as the percent inhibition of specific bindin g (% inhib ition) as a […]
(§5) part of each binding assay with the five (SSTR1 -SS T R5 ) . I C50 values were determined by a non-linear, least squares regression analysis using Prism 9 (GraphPad Software, USA), using the Dose -response inhibit ion (t hree-parameters) model.

SSTR5 [2] = target: T2, SSTR5 (Homo sapiens, UniProt P35346); assay: Radio-ligand binding assay, SSTR5
T2 construct: host or cells: CHO-K1
Method: as §1, §2, §3, §4, §5

SSTR3 [3] = target: T3, SSTR3 (Homo sapiens, UniProt P32745); assay: Radio-ligand binding assay, SSTR3
T3 construct: host or cells: CHO-K1
Method: as §1, §2, §3, §4, §5

[4] = test system: LPS-activated mouse Raw 264 macrophages; assay: Inflammatory response of LPS-activated RAW 264 macrophages; type: cell-based; conditions: 100 nM (Supplementary Fig. 2c)
Method: Inflammatory response was assayed in vitro on the mouse macrophagic cell line RAW 264 macrophages and mouse primary peritoneal macrophages. RAW 264 cells (ATTC, TIB-71) were grown at 5 × 10^5 cells/mL in complete DMEM medium (DMEM supplemented with 100 U/mL penicillin/streptomycin, 2 mM L-glutamine, 50 μM 2-mercaptoethanol and 10% heat-inactivated fetal calf serum) until reaching a confluence of 80% and then incubated in the absence (used as baseline reference) or presence of LPS (1 μg/mL, from E. coli serotype 055: B5, Sigma). Cortistatin (mouse/rat CST-14, Bachem) and its synthesised analogues were added at a concentration of 100 nM at the beginning of culture. After 24 h of culture, supernatants were harvested. Levels of the inflammatory cytokines TNFα and IL6 were determined by a specific sandwich ELISA by using capture/biotinylated detection monoclonal antibodies from BD Pharmingen (for TNFα: capture antibody clone G281-2626, cat # 551225; biotin antibody clone MP6-XT3, cat # 554415; for IL6: capture antibody clone MP5-20F3, cat # 554398; biotin MP5-32C1, cat # 554402) according to the manufacturer’s recommendations. Nitric oxide content in culture supernatants was determined by quantifying nitrite levels using the Griess assay.

SSTR2 [5] = target: T4, SSTR2 (Homo sapiens, UniProt P30874); assay: Radio-ligand binding assay, SSTR2
T4 construct: host or cells: CHO-K1
Method: as §1, §2, §3, §4, §5

[6] = Aqueous solubility (observed on sample preparation); type: physicochemical; conditions: aqueous buffer solution; observation in words
Excerpt: For instance, it is well known that substitution of L-Trp to D-Trp increases the population of the native β-turn and of and the analogue half-life in serum. […] For these reasons, in all the CST analogues, L-Trp was replaced by D-Trp in position 7 and Ser11 was replaced by Thr11 to stabilise the β-turn; and either Phe6 or Phe5 were replaced by Msa (analogues 2 and 4; Fig. 1c). In addition to these modifications, terminal residues were acylated as N-octanoyl amides (analogues 3 and 5). The reasoning behind this modification was to increase the hydrophobicity of the analogue and mimic a similar modification to that observed in ghrelin, a neuropeptide produced by endocrine cells in the digestive tract and that shares with CST the ability to interact with the growth hormone secretagogue receptor GHSR-1a[28].
We also characterised the conformational properties of analogues 2, 3 and 4. […] In these cases (Fig. 8a–c), the aromatic residues 5 and 10 align on one side of the molecule, whereas the side chain of residue 6 is located on the other side of the peptide plane. In this conformation, D-Trp7 is close to the pair of aromatic rings 5 and 10, due to the presence of weak NOEs involving the ring protons of D-Trp7 and the methyl protons of Msa5. […]

SSTR4 = target: T5, SSTR4 (Homo sapiens, UniProt P31391); design: method as in earlier work; conditions: literature values marked *; ref 1 (supplementary references); cited from earlier work
T5 construct: host or cells: CHO-K1
Excerpt: (§6) The peptide backbone is shown in gold and the N- and C-terminus residues, as well as the disulfide bond are labelled. Representative aromatic clusters. All side chains are shown to facilitate structural analysis. Side chains participating in the interactions are specifically labelled. c Schematic representation of Cortistatin-14 sequence. […] 1-2. […] 3-1. […] 3-1. […] 3-1.

SSTR3 [7] = target: T3, SSTR3; design: method as in earlier work; conditions: literature values marked *; ref 1 (supplementary references); cited from earlier work
Excerpt: as §6

SSTR5 [8] = target: T2, SSTR5; design: method as in earlier work; conditions: literature values marked *; ref 1 (supplementary references); cited from earlier work
Excerpt: as §6

SSTR2 [9] = target: T4, SSTR2; design: method as in earlier work; conditions: literature values marked *; ref 1 (supplementary references); cited from earlier work
Excerpt: as §6

[10] = test system: serum of mice with TNBS-induced acute colitis; assay: Serum cytokines in TNBS-induced acute colitis; type: in vivo, mouse
Excerpt: In both TNBS-induced acute and chronic colitis, animals were daily monitored for the appearance of diarrhea, body weight loss and survival. At different time points, colitis signs were scored in base of stool consistency and rectal bleeding by two blinded observers using the following scale: 0 = normal stool appearance, 1 = slight decrease in stool consistency, 2 = moderate decrease in stool consistency, 3 = moderate decrease in stool consistency and presence of blood in stools, 4 = severe watery diarrhea and moderate/severe bleeding in stools. […] After macroscopic examination, various colonic segments were immediately frozen in liquid nitrogen for protein extraction and cytokine determination or for histopathological analysis as described below. In some animals, MLNs were isolated 10 days after TNBS injection and assayed for proliferation, cytokine production and flow cytometric analysis as described below. Moreover, sera were collected by cardiac puncture at day 10 after TNBS injection and the levels of cytokines and anti-TNBS IgG were determined by specific ELISAs as described below. […]
Supplementary Table 3. Serum cytokines in TNBS-in du ced acu t e col i ti s.
Treatments were administered in a curative regime as described in Figure 4 and sera were collected 10
days after TNBS infusion. n=8 mice/group. Data are mean ± SEM. […]

[11] = test system: colonic mucosa of mice with TNBS-induced acute colitis; assay: Cytokines in colonic mucosa, TNBS-induced acute colitis; type: in vivo, mouse; conditions: Figure 5c, mean of 8 mice
Method: Control mice received 50% ethanol alone.
Protein extracts were isolated by homogenisation of colonic segments (50 mg tissue/mL) in 50 mM Tris-HCl, pH 7.4, with 0.5 mM DTT, and 10 μg/mL of a cocktail of proteinase inhibitors (all from Sigma-Aldrich). Samples were centrifuged at 30,000×g for 20 min and stored at –80 °C until cytokine determination.

[12] = TNBS acute colitis, curative regime, sera 10 days after TNBS, mean ± SEM, n=8
[13] = acute colitis induced by TNBS, serum, mean of 8 mice

T2 sequence (P35346 whole entry): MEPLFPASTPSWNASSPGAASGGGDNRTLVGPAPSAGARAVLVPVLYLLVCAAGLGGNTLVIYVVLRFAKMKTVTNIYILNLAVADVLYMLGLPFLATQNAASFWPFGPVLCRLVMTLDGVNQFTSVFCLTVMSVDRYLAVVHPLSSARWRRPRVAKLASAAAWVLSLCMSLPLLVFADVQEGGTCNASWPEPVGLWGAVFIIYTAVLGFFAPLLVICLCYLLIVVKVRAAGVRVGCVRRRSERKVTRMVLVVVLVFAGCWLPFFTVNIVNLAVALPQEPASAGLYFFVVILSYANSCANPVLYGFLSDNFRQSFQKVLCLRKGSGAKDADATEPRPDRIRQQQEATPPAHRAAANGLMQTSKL
T4 sequence (P30874 whole entry): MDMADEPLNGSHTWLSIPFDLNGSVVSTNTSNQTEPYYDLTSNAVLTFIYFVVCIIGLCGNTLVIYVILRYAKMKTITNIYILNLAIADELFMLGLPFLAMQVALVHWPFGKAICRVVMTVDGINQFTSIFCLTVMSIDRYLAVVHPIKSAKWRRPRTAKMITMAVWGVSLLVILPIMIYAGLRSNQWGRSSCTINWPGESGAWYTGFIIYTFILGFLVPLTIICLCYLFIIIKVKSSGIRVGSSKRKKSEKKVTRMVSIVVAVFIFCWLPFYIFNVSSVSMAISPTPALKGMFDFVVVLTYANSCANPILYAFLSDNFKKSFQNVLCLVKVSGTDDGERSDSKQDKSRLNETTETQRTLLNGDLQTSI
T3 sequence (P32745 whole entry): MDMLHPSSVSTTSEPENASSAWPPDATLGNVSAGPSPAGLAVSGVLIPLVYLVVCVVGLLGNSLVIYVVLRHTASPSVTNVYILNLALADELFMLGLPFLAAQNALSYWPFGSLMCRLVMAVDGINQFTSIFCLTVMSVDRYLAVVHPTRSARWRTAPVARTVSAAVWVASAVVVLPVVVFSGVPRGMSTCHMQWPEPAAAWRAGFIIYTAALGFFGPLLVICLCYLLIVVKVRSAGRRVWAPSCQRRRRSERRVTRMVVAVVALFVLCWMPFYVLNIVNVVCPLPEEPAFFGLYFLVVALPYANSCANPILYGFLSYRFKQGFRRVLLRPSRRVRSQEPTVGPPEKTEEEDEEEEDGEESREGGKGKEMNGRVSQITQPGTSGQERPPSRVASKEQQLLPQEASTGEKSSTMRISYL
T5 sequence (P31391 whole entry): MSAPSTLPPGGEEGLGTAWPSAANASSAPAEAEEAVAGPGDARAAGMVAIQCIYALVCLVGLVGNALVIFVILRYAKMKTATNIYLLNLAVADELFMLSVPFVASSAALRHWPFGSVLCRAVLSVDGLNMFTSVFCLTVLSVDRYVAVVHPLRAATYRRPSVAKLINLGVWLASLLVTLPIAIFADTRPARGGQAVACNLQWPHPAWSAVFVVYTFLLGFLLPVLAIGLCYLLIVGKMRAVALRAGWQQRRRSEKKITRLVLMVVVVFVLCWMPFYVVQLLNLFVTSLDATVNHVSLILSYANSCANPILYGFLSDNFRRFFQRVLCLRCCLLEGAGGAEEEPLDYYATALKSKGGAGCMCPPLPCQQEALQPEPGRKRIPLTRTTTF
T1 sequence (P30872 whole entry): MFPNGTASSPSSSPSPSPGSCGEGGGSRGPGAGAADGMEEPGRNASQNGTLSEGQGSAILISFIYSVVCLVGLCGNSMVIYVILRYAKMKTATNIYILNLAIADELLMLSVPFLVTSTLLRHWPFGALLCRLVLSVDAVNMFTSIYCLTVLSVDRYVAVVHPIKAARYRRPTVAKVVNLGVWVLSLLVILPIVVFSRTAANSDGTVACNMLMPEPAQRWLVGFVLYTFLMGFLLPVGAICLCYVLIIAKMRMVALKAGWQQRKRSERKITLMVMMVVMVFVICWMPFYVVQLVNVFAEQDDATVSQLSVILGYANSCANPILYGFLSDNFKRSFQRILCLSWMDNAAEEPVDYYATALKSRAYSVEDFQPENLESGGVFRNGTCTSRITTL

Structure (SMILES): Cc1cc(C)c(C[C@@H]2NC(=O)[C@H](CC(N)=O)NC(=O)[C@H](CCCCN)NC(=O)[C@@H](NC(=O)[C@@H]3CCCN3)CSSC[C@@H](C(=O)N[C@@H](CCCCN)C(=O)O)NC(=O)[C@H](CO)NC(=O)[C@H]([C@@H](C)O)NC(=O)[C@H](Cc3ccccc3)NC(=O)[C@H]([C@@H](C)O)NC(=O)[C@H](CCCCN)NC(=O)[C@@H](Cc3c[nH]c4ccccc34)NC(=O)[C@H](Cc3ccccc3)NC2=O)c(C)c1 [A4, [L-Msa5_D-Trp7_L-Thr11]-CST 14]
- effect on the inflammatory responses in activated lymphocytes [1]: no significant effects
- IC50 (SSTR1): 14.7 nM
- IC50 (SSTR5 [2]): 4 nM
- IC50 (SSTR3 [3]): 1.8 nM
- effect on the inflammatory responses in activated macrophages [4]: no significant effects
- IC50 (SSTR2 [5]): 9.8 nM

Structure (SMILES): CCCCCCCC(=O)N1CCC[C@H]1C(=O)N[C@H]1CSSC[C@@H](C(=O)O)NC(=O)[C@H](CO)NC(=O)[C@H]([C@@H](C)O)NC(=O)[C@H](Cc2ccccc2)NC(=O)[C@H]([C@@H](C)O)NC(=O)[C@H](CCCCN)NC(=O)[C@@H](Cc2c[nH]c3ccccc23)NC(=O)[C@H](Cc2ccccc2)NC(=O)[C@H](Cc2c(C)cc(C)cc2C)NC(=O)[C@H](CC(N)=O)NC(=O)[C@H](CCCCN)NC1=O [analogue 6]
- aqueous solubility [6]: reduced its aqueous solubility; also recorded: significant impact on the solubility of the sample

Structure (SMILES): C[C@@H](O)[C@@H]1NC(=O)[C@H](CCCCN)NC(=O)[C@H](Cc2c[nH]c3ccccc23)NC(=O)[C@H](Cc2ccccc2)NC(=O)[C@H](Cc2ccccc2)NC(=O)[C@H](CC(N)=O)NC(=O)[C@H](CCCCN)NC(=O)[C@@H](NC(=O)[C@@H]2CCCN2)CSSC[C@@H](C(=O)N[C@@H](CCCCN)C(=O)O)NC(=O)[C@H](CO)NC(=O)[C@H](CO)NC(=O)[C@H](Cc2ccccc2)NC1=O [CST] (H-PCKNFFWKTFSSCK-OH; disulfide 2-13)
- IC50 (SSTR4): 0.2 nM
- IC50 (SSTR3 [7]): 0.3 nM
- IC50 (SSTR5 [8]): 0.3 nM
- IC50 (SSTR2 [9]): 0.09 nM

Structure (SMILES): Nc1ccc(O)c(C(=O)O)c1 [Mesalazine, 5-aminosalycilic acid]
- Serum IL6 [10, 12]: 773 ± 46 pg/mL
- Serum IL17 [10, 12]: 233 ± 15 pg/mL
- IL6, serum level [10, 13]: 0.77 ng/mL
- TNFa, serum level [10, 13]: 0.78 ng/mL
- IL17, serum level ([10]; acute colitis induced by TNBS, serum, mouse 1 of the group): 0.024 ng/mL
- IL17, serum level ([10]; acute colitis induced by TNBS, serum, mouse 2 of the group): 0.024 ng/mL
- IL17, serum level ([10]; acute colitis induced by TNBS, serum, mouse 3 of the group): 0.029 ng/mL
- IL17, serum level ([10]; acute colitis induced by TNBS, serum, mouse 4 of the group): 0.017 ng/mL
- IL17, serum level ([10]; acute colitis induced by TNBS, serum, mouse 5 of the group): 0.019 ng/mL
- IL17, serum level ([10]; acute colitis induced by TNBS, serum, mouse 6 of the group): 0.025 ng/mL
- IL17, serum level ([10]; acute colitis induced by TNBS, serum, mouse 7 of the group): 0.021 ng/mL
- IL17, serum level ([10]; acute colitis induced by TNBS, serum, mouse 8 of the group): 0.028 ng/mL
- IL10 (ng/g colon) [11]: 3.75 ng/g colon

Reference: article PMC7994712 (Nature Communications, 2021)
